This is an account of results in patent US10947226B2, “Bicyclic pyridone lactams and methods of use thereof” (Genentech, Inc., priority 2016, dated 2021).

The target in the assay is human RIP1 kinase domain (2-375) (Homo sapiens (Human), UniProt Q13546). In words: RIP1 kinase inhibition assay (biochemical, Transcreener ADP fluorescence polarization). The settings on record: Ki app (Morrison tight-binding fit); 50 nM enzyme, 50 μM ATP, 2 hours incubation, pH 7.5. The procedure:
RIP1 Kinase Inhibition Assays (Biochemical Assay)
The compounds of the present invention were tested for their capacity to inhibit RIP1K activity as described below.
Enzyme assay: The ability of the receptor interacting protein kinase (RIPK1) to catalyze the hydrolysis of adenosine-5′-triphosphate (ATP) is monitored using the Transcreener ADP (adenosine-5′-diphosphate) assay (BellBrook Labs). Purified human RIP1 kinase domain (2-375) (50 nM) derived from a baculovirus-infected insect cell expression system is incubated with test compounds for 2 hours in 50 mM Hepes buffer (pH 7.5) containing 30 mM MgCl2, 1 mM dithiothreitol, 50 μM ATP, 0.002% Brij-35, and 0.5% dimethyl sulfoxide (DMSO). Reactions are quenched by the addition of 1× Bell Brooks Stop buffer B (20 mM Hepes (ph 7.5), 40 mM ethylenediaminetetraacetic acid and 0.02% Brij-35) containing an additional 12 mM EDTA and 55 μg/mL ADP2 antibody and 4 nM ADP-AlexaFluor® 633 tracer. The tracer bound to the antibody is displaced by the ADP generated during the RIP1K reaction, which causes a decrease in fluorescence polarization that is measured by laser excitation at 633 nm with a FP microplate reader M1000. Fractional activity was plotted against test article concentration. Using Genedata Screener software (Genedata; Basel, Switzerland), the data were fit to the tight-binding apparent inhibition constant (Ki^app) Morrison equation [Williams, J. W. and Morrison, J. F. (1979) The kinetics of reversible tight-binding inhibition. Methods Enzymol 63: 437-67]. The following equation was used to calculate fractional activity and Ki^app: […]
where [E]T and [I]T are the total concentrations of active enzyme and test article, respectively. […]

human RIP1 kinase domain (2-375), sequence (Q13546 2-375): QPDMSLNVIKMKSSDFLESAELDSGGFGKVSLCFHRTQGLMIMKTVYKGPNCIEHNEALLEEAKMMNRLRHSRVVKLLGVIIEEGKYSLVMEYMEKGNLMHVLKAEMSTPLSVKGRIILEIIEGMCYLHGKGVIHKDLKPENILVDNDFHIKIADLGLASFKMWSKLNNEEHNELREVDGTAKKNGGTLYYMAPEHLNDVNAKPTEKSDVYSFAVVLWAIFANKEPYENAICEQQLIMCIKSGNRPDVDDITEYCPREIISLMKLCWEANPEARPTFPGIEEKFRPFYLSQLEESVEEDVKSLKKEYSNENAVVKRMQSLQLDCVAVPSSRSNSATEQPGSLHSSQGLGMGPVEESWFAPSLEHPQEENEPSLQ

Consider `CN1C(=O)[C@@H](NC(=O)c2ncn(Cc3ccccc3)n2)CCc2c1ccc(=O)n2C` (single isomer, unassigned) [Example 1], for which the Ki worked out at 233 nM. To `CN1C(=O)[C@@H](NC(=O)c2ncn(Cc3ccccc3F)n2)CCc2c1ccc(=O)n2C` (single isomer, unassigned) [Example 2] belongs 156 nM. For `CN1C(=O)[C@@H](NC(=O)c2ncn(Cc3ccccc3)n2)CCn2c1cccc2=O` (single isomer, unassigned) [Example 3] the value was 489 nM. To `CN1C(=O)[C@@H](NC(=O)c2ncn(Cc3ccccc3F)n2)CCn2c1cccc2=O` (single isomer, unassigned) [Example 4] belongs 290 nM; to `CN1C(=O)[C@@H](NC(=O)c2ncn(Cc3ccccc3)n2)CCc2cn(C)c(=O)cc21` (single isomer, unassigned) [Example 5], 79 nM; to `CN1C(=O)[C@@H](NC(=O)c2ncn(Cc3ccccc3F)n2)CCc2cn(C)c(=O)cc21` (single isomer, unassigned) [Example 6], 49 nM. In turn, `CN1C(=O)[C@@H](NC(=O)c2ncn(Cc3ccccc3)n2)CCc2cc(=O)n(C)cc21` (single isomer, unassigned) [Example 7] came in with a Ki of 173 nM. For the compound `CN1C(=O)[C@H](NC(=O)c2ncn(Cc3ccccc3)n2)CCc2cc(=O)n(C)cc21` (single isomer, unassigned) [Example 8], the Ki is greater than 10000 nM. `CN1C(=O)[C@@H](NC(=O)c2ncn(Cc3ccccc3F)n2)CCc2cc(=O)n(C)cc21` (single isomer, unassigned) [Example 9] had a Ki of 111 nM. For `CN1C(=O)[C@H](NC(=O)c2ncn(Cc3ccccc3F)n2)CCc2cc(=O)n(C)cc21` (single isomer, unassigned) [Example 10] the value was greater than 10000 nM; for `CN1C(=O)[C@@H](NC(=O)c2nc3n(n2)[C@H](c2ccccc2F)CC3)CCc2cc(=O)n(C)cc21` (single isomer, unassigned) [Example 11], 231 nM.

Take `CN1C(=O)[C@H](NC(=O)c2nc3n(n2)[C@H](c2ccccc2F)CC3)CCc2cc(=O)n(C)cc21` (single isomer, unassigned) [Example 12]: the Ki is greater than 10000 nM. For `CN1C(=O)[C@@H](NC(=O)c2nc3n(n2)[C@H](c2ccccc2F)CC3)CCc2cn(CC3CC3)c(=O)cc21` (single isomer, unassigned) [Example 14] the value was 56 nM; for `CN1C(=O)[C@@H](NC(=O)c2ncn(Cc3ccccc3F)n2)CCc2cn(CC3CC3)c(=O)cc21` (single isomer, unassigned) [Example 15], 39 nM. To `CN1C(=O)[C@H](NC(=O)c2nc3n(n2)[C@H](c2ccccc2F)CC3)CCc2cn(CC3CC3)c(=O)cc21` (single isomer, unassigned) [Example 16] belongs 6900 nM; to `CN1C(=O)[C@H](NC(=O)c2ncn(Cc3ccccc3F)n2)CCc2cn(CC3CC3)c(=O)cc21` (single isomer, unassigned) [Example 17], 6900 nM; to `CCn1cc2c(cc1=O)N(C)C(=O)[C@@H](NC(=O)c1nc3n(n1)[C@H](c1ccccc1F)CC3)CC2` (single isomer, unassigned) [Example 18], 110 nM. Take `CCn1cc2c(cc1=O)N(C)C(=O)[C@@H](NC(=O)c1ncn(Cc3ccccc3F)n1)CC2` (single isomer, unassigned) [Example 19]: the Ki was found to be 110 nM.

For `CCn1cc2c(cc1=O)N(C)C(=O)[C@H](NC(=O)c1nc3n(n1)[C@H](c1ccccc1F)CC3)CC2` (single isomer, unassigned) [Example 20], the Ki was greater than 10000 nM. To `CCn1cc2c(cc1=O)N(C)C(=O)[C@H](NC(=O)c1ncn(Cc3ccccc3F)n1)CC2` (single isomer, unassigned) [Example 21] belongs greater than 10000 nM; to `CN1C(=O)[C@H](NC(=O)c2ncn(Cc3ccccc3F)n2)CCc2c1ccc(=O)n2C` (single isomer, unassigned) [Example 22], greater than 10000 nM; to `CN1C(=O)[C@H](NC(=O)c2ncn(Cc3ccccc3)n2)CCc2c1ccc(=O)n2C` (single isomer, unassigned) [Example 23], greater than 10000 nM. In turn, `CN1C(=O)[C@@H](NC(=O)c2nc3n(n2)[C@H](c2ccccc2F)CC3)CCc2cn(C)c(=O)cc21` [Example 13, (5S)-5-(2-fluorophenyl)-N-[(3S)-1,7-dimethyl-2,8-dioxo-4,5-dihydro-3H-pyrido[4,3-b]azepin-3-yl]-6,7-dihydro-5H-pyrrolo[1,2-b][1,2,4]triazole-2-carboxamide] had a Ki of 81.1 nM.
